What follows are molecules tested on MDA-MB-436 (assay: CTG experiment for cell viability (CellTiter-Glo, 96-well plate, 7 days)). Conditions: Homo sapiens, MDA-MB-436, 168 h, MDA-MB-436 cells, 7 days culture with compound.
Type: cell-based
Procedure: Test Example 2: CTG experiment for cell viability
• 1. Object: to screen USP1 inhibitors by a CTG assay, using a 96-well plate. • 2. Materials: • The cells used were MDA-MB-436 (manufacturer: Nanjing Cobioer Biotechnology Co., Ltd.) and cultured in DMEM medium, • CTG (CellTiter-Glo® Luminescent Cell Viability Assay kit) (Promega, Cat. No.: G7572), • 96-well plate (Corning, Cat. No.: 3610). • 3. Compounds: all compounds were dissolved in 100% DMSO to obtain 50 mM stock solutions. • 4. Experimental method: • ① Plating: The cells to be tested were spread into a 96-well plate at a certain density, with 200 µL per well, and 200 µL of cell medium was added to the blank wells. […] The cell plate with the compounds was placed in an incubator at 37°C, and further cultured for 7 days prior to detection. • ④ Assay: The substrate and the buffer of CTG kit were mixed evenly. The cell plate with the compounds in Step ③ was taken out from the incubator, and left at room temperature to equilibrate for 30 minutes. The medium containing the compounds was removed from the cell plate, 100 µL of PBS and 50 µL of CTG reagent were added to each well, shaken and mixed for 3 minutes, and then incubated for 10 minutes at room temperature. The plate was read by a BIotek microplate-reader, with a parameter set to 567 CPM. • 5. Curve fitting
It was the same as that for the enzyme.

Structure (SMILES) | IC50 [nM]
Cn1cc(C(F)(F)F)nc1-c1ccc(CNc2nc(-c3cccnc3C3CC3)ncc2OC(F)F)cc1 [Example 156, 2-(2-Cyclopropylpyridin-3-yl)-5-(difluoromethoxy)-N-(4-(1-methyl-4-(trifluoromethyl)-1H-imidazol-2-yl)benzyl)pyrimidin-4-amine] | 59.5
COc1ncnc(C2CC2)c1-c1ncc2c(n1)N(Cc1ccc(-c3nc(C(F)(F)F)cn3C)cc1)C(=O)CO2 [Example 18, 2-(4-Cyclopropyl-6-methoxypyrimidin-5-yl)-8-(4-(1-methyl-4-(trifluoromethyl)-1H-imidazol-2-yl)benzyl)-6H-pyrimido[5,4-b][1,4]oxazin-7(8H)-one] | 313

Same assay, conditions: MDA-MB-436 cells, 7 days culture with compound

Structure (SMILES) | IC50 [nM]
COc1cnc(-c2c(OC)ncnc2C2CC2)nc1N(C)C[C@H]1CC[C@H](c2nc(C(F)(F)F)cn2C2CC2)CC1 [Example S28, 4'-Cyclopropyl-N-(((1R,4R)-4-(1-cyclopropyl-4-(trifluoromethyl)-1H-imidazol-2-yl)cyclohexyl)methyl)-5,6'-dimethoxy-N-methyl-[2,5'-bipyrimidin]-4-amine] | 0.3
COc1cnc(-c2c(OC)ncnc2C2CC2)nc1NCC1CCC(c2nc(C(F)(F)F)cn2C(C)C)CC1 [Example S25, 4'-Cyclopropyl-N-((1R,4R)-4-(1-isopropyl-4-(trifluoromethyl)-1H-imidazol-2-yl)cyclohexyl)methyl)-5,6'-dimethoxy-[2,5'-bipyrimidin]-4-amine] | 24.4

What follows are molecules tested against T1, Recombinant human His6-USP1/His6-UAF1 complex protein (Homo sapiens, UniProt O94782) (assay: In vitro inhibitory activity against USP1 (Ubiquitin Rhodamine 110 fluorescence detection, 384-well plate)). Conditions: Ub-Rho substrate, 1 hour pre-incubation, read after 30 minutes.
T1 construct: His6; purchased R&D E-568-050
Type: biochemical
Procedure: Test Example 1: In vitro inhibitory activity against USP1 […]
Experimental object: to screen compounds with inhibitory activity against USP1 […] by a fluorescence detection method, using a 384-well plate.
Experimental materials: Recombinant human His6-USP1/His6-UAF1 complex protein (R&D, Cat. No.: E-568-050), Ubiquitin Rhodamine 110 protein (Ub-Rho) (R&D, Cat. No.: U-555-050), 384-well plate (Perkin Elmer, Cat. No.: 6007279); all compounds were dissolved in 100% DMSO to obtain 50 mM stock solutions.
• 1) Preparation of 1 × assay buffer: 1 × assay buffer (modified Tris buffer) was prepared; • 2) Dilution of compounds: the compounds were transferred to an assay plate via Echo.

T1 sequence (O94782 whole entry): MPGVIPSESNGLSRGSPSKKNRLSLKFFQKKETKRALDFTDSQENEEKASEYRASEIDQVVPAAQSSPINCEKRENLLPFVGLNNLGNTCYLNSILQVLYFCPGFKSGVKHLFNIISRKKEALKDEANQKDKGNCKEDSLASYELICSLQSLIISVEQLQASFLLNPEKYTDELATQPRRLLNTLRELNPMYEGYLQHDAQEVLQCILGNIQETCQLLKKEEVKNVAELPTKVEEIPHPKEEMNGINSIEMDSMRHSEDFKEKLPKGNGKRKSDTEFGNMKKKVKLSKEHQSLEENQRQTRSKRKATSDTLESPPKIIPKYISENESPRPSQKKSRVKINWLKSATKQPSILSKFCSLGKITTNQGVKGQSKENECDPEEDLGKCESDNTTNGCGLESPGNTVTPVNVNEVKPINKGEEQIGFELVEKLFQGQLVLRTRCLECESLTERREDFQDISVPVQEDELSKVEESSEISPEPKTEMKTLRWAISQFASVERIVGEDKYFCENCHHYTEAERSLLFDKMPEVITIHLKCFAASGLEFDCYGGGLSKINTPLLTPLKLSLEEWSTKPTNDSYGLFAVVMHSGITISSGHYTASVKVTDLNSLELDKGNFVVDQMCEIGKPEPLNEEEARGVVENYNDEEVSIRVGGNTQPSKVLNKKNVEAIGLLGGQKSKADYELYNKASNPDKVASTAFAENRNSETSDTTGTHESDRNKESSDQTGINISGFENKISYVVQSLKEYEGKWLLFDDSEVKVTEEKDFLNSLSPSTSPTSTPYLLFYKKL
T1 sequence (Q8TAF3 whole entry partner): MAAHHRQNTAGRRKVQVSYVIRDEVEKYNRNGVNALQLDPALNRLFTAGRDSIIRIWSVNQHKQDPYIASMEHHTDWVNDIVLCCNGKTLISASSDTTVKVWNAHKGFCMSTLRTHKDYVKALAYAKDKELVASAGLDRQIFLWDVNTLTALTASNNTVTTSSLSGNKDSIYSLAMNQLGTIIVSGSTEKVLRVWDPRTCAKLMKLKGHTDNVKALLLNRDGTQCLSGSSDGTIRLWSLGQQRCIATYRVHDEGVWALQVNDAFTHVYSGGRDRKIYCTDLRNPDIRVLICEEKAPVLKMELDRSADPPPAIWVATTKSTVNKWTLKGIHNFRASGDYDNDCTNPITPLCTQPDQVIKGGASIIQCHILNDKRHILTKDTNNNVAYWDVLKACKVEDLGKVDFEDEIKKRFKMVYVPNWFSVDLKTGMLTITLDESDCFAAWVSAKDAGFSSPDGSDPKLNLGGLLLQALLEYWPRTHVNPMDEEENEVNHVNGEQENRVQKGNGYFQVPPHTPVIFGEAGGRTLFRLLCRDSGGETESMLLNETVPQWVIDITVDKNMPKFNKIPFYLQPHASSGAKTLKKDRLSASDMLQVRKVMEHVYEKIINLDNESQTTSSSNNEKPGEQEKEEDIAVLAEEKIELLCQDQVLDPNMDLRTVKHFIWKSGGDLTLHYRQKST

Structure (SMILES) | IC50 [nM]
COc1ncnc(C2CC2)c1-c1nc(NCc2ccc(OC3CC(OC)C3)cc2)c2occc2n1 (centres unmarked) [Example 118, 2-(4-Cyclopropyl-6-methoxypyrimidin-5-yl)-N-(4-(3-methoxycyclobutoxy)benzyl)furo[3,2-d]pyrimidin-4-amine] | 58
COc1cnc(-c2c(OC)ncnc2C2CC2)nc1N(C#N)Cc1ccc(-c2nc(C(F)(F)F)cn2C)cc1 [Example 206, N-(4'-cyclopropyl-5,6'-dimethoxy-[2,5'-bipyrimidin]-4-yl)-N-(4-(1-methyl-4-(trifluoromethyl)-1H-imidazol-2-yl)benzyl)cyanamide] | 3.5
COc1cnc(-c2cncnc2C2CC2)nc1N(C)Cc1ccc(-c2nc(C(F)(F)F)cn2C)cc1 [Example 193, 4'-Cyclopropyl-5-methoxy-N-methyl-N-(4-(1-methyl-4-(trifluoromethyl)-1H-imidazol-2-yl)benzyl)-[2,5'-bipyrimidin]-4-amine] | 87
CC(C)c1ccccc1-c1nc(NCc2ccc3c(c2)CCN(C)C3=O)c2occc2n1 [Example 77, 6-(((2-(2-Isopropylphenyl)furo[3,2-d]pyrimidin-4-yl)amino)methyl)-2-methyl-3,4-dihydroisoquinolin-1 (2H)-one] | 28
COc1cnc(-c2c(Cl)cnn2C(C)C)nc1NCC12CCC(c3nc(C(F)(F)F)cn3C3CCC3)(CC1)OC2 [Example S11, 2-(4-Chloro-1-isopropyl-1H-pyrazol-5-yl)-N-((1-(1-cyclobutyl-4-(trifluoromethyl)-1H-imidazol-2-yl)-2-oxabicyclo[2.2.2]oct-4-yl)methyl)-5-methoxypyrimidin-4-amine] | 6.1
Cc1cc(C(F)(F)F)nn1-c1ccc(CNc2nc(-c3ccccc3C(C)C)ncc2O)cc1 [Example 90, 2-(2-Isopropylphenyl)-4-((4-(5-methyl-3-(trifluoromethyl)-1H-pyrazol-1-vl)benzyl)amino)pyrimidin-5-ol] | 102
COc1ncnc(C2CC2)c1-c1ncc2c(n1)N(Cc1ccc(-c3ccccn3)cc1)CCO2 [Example 9, 2-(4-Cyclopropyl-6-methoxypyrimidin-5-yl)-8-(4-(pyridin-2-yl)benzyl)-7,8-dihydro-6H-pyrimido[5,4-b][1,4]oxazine] | 35
COc1cnc(-c2cccc3c2N(C)CC3)nc1NCc1ccc(-n2nc(C(F)(F)F)cc2C)cc1 [Example 146] | 18
CC(C)c1ccccc1-c1ncc2c(n1)N(CC1CCN(c3nc(C(F)(F)F)cn3C)CC1)C(=O)CO2 [Example 24, 2-(2-Isopropylphenyl)-8-((1-(1-methyl-4-(trifluoromethyl)-1H-imidazol-2-yl)piperidin-4-yl)methyl)-6H-pyrimido[5,4-b][1,4]oxazin-7(8H)-one] | 8.8
COc1ncnc(C2CC2)c1-c1ncc2c(n1)N(CC1CCN(c3nc(C(F)(F)F)cn3C)CC1)C(=O)CO2 [Example 30, 2-(4-Cyclopropyl-6-methoxypyrimidin-5-yl)-8-((1-(1-methyl-4-(trifluoromethyl)-1H-imidazol-2-yl)piperidin-4-yl)methyl)-6H-pyrimido[5,4-b][1,4]oxazin-7(8H)-one] | 37
CC(C)c1ccccc1-c1ncc(N2CCOCC2)c(NCc2ccc(-c3nc(C(F)(F)F)cn3C)cc2)n1 [Example 87, 2-(2-Isopropylphenyl)-N-(4-(1-methyl-4-(trifluoromethyl)-1H-imidazol-2-yl)benzyl)-5-morpholinopyrimidin-4-amine] | 6.2
CC(C)c1ccccc1-c1ncc(C(F)(F)F)c(NCC2CCN(c3nc(C(F)(F)F)cn3C)CC2)n1 [Example 25, 2-(2-Isopropylphenyl)-N-((1-(1-methyl-4-(trifluoromethyl)-1H-imidazol-2-yl)piperidin-4-yl)methyl)-5-(trifluoromethyl)pyrimidin-4-amine] | 3.7
COc1ncnc(C2CC2)c1-c1nc(NCc2ccc3c(c2)CCN(C(C)C)C3=O)c2occc2n1 [Example 115, 6-(((2-(4-Cyclopropyl-6-methoxypyrimidin-5-yl)furo[3,2-d]pyrimidin-4-yl)amino)methyl)-2-isopropyl-3,4-dihydroisoquinolin-1(2H)-one] | 77
CC(C)c1ccccc1-c1ncc2c(n1)N(C[C@H]1CC[C@@H](c3nc(C(F)(F)F)cn3C)CC1)CCO2 [Example 14, 2-(2-Isopropylphenyl)-8-(((1s,4s)-4-(1-methyl-4-(trifluoromethyl)-1H-imidazol-2-yl)cyclohexyl)methyl)-7,8-dihydro-6H-pyrimido[5,4-b][1,4] oxazine] | 60
COc1cnc(-c2c(OC)cnn2C(C)C)nc1N(C)CC1CCN(c2ccccn2)CC1 [Example 177, 2-(1-Isopropyl-4-methoxy-1H-pyrazol-5-yl)-5-methoxy-N-methyl-N-((1-(pyridin-2-yl)piperidin-4-yl)methyl)pyrimidin-4-amine] | 75
Cn1cc(C(F)F)nc1-c1ccc(CNc2nc(-c3cncnc3C3CC3)nc3ccoc23)cc1 [Example 197, 2-(4-Cyclopropylpyrimidin-5-yl)-N-(4-(4-(difluoromethyl)-1-methyl-1H-imidazol-2-yl)benzyl)furo[3,2-d]pyrimidin-4-amine] | 133
COc1cnc(-c2c(OC)ncnc2C2CC2)nc1NCc1ccc2c(c1)CCN(C(C)C)C2=O [Example 97, 6-(((4'-Cyclopropyl-5,6'-dimethoxy-[2,5'-bipyrimidin]-4-yl)amino)methyl)-2-isopropyl-3,4-dihydroisoquinolin-1(2H)-one] | 263
COc1cnc(-c2cccc3ccn(C)c23)nc1NCc1ccc(-c2nc(C(F)(F)F)cn2C)cc1 [Example 143, 5-Methoxy-2-(1-methyl-1H-indol-7-yl)-N-(4-(1-methyl-4-(trifluoromethyl)-1H-imidazol-2-yl)benzyl)pyrimidin-4-amine] | 31
COc1cnc(-c2c(OC)cnn2C2CC2)nc1NCC1CCN(c2nc(C(F)(F)F)cn2C)CC1 [Example 184, 2-(1-Cyclopropyl-4-methoxy-1H-pyrazol-5-yl)-5-methoxy-N-((1-(1-methyl-4-(trifluoromethyl)-1H-imidazol-2-yl)piperidin-4-yl)methyl)pyrimidin-4-amine] | 94
COc1cnc(-c2c(Cl)cnn2C(C)C)nc1N(C)CC12CCC(c3nc(C(F)(F)F)cn3C)(CC1)OC2 [Example 211, 2-(4-chloro-1-isopropyl-1H-pyrazol-5-yl)-5-methoxy-N-methyl-N-((1-(1-methyl-4-(trifluoromethyl)-1H-imidazol-2-yl)-2-oxabicyclo [2.2.2]octan-4-yl)methyl)pyrimidin-4-amine] | 6.1
COc1cnc(-c2c(OC)ncnc2C2CC2)nc1NCc1ccc(-c2nc(C(F)(F)F)cn2C)cc1 [Example 29, 4'-Cyclopropyl-5,6'-dimethoxy-N-(4-(1-methyl-4-(trifluoromethyl)-1H-imidazol-2-yl)benzyl)-[2,5'-bipyrimidin]-4-amine] | 4.8
COc1ncnc(C2CC2)c1-c1ncc2c(n1)N(CC1CCN(c3ccccn3)CC1)CCO2 [Example 10, 2-(4-Cyclopropyl-6-methoxypyrimidin-5-yl)-8-((1-(pyridin-2-yl)piperidin-4-yl)methyl)-7,8-dihydro-6H-pyrimido[5,4-b][1,4]oxazine] | 564
